Test results: PubChem BioAssay AID248 (DTP/NCI, 2004)
Several values for one entry are separate records, joined by “and”; a condition that tells them apart may be missing. Equal entries are not always repeated. Toxic doses and inconclusive results are not listed. No stated cut-off is given here; in the data, active means T/C of 150% or more; inactive means T/C below 125%.

Test system: L1210 leukemia ip in BDF1 mice, survival T/C
Experiment: NCI In Vivo Anticancer Drug Screen. Data for tumor model L1210 Leukemia (intraperitoneal) in B6D2F1 (BDF1) mice
Settings: endpoint: mean survival time, higher = longer survival
Method in brief: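 Read-out is survival time, reported as the treated-group measurement over the vehicle-control measurement.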

[1] = dose: 100.0 mg/kg/injection, schedule: Q01DX001 (ip), vehicle: saline with Tween-80
[2] = dose: 200.0 mg/kg/injection, schedule: Q01DX001 (ip), vehicle: saline with Tween-80
[3] = dose: 400.0 mg/kg/injection, schedule: Q01DX001 (ip), vehicle: saline with Tween-80
[4] = dose: 50.0 mg/kg/injection, schedule: Q01DX001 (ip), vehicle: other
[5] = dose: 100.0 mg/kg/injection, schedule: Q01DX001 (ip), vehicle: other
[6] = dose: 200.0 mg/kg/injection, schedule: Q01DX001 (ip), vehicle: other
[7] = dose: 400.0 mg/kg/injection, schedule: Q01DX001 (ip), vehicle: other
[8] = dose: 100.0 mg/kg/injection, schedule: Q01DX001 (ip), vehicle: Klucel (hydroxypropylcellulose) (HPC)
[9] = dose: 200.0 mg/kg/injection, schedule: Q01DX001 (ip), vehicle: Klucel (hydroxypropylcellulose) (HPC)
[10] = dose: 400.0 mg/kg/injection, schedule: Q01DX001 (ip), vehicle: Klucel (hydroxypropylcellulose) (HPC)
[11] = dose: 50.0 mg/kg/injection, schedule: Q01DX009 (ip), vehicle: saline with Tween-80
[12] = dose: 100.0 mg/kg/injection, schedule: Q01DX009 (ip), vehicle: saline with Tween-80
[13] = dose: 200.0 mg/kg/injection, schedule: Q01DX009 (ip), vehicle: saline with Tween-80
[14] = dose: 100.0 mg/kg/injection, schedule: Q01DX009 (ip), vehicle: Klucel (hydroxypropylcellulose) (HPC)

Measured: T/C

O=C(NC/C=C/Br)C(F)(F)F
inactive: [1] 118 % of control | dose: 100.0 mg/kg/injection, schedule: Q04DX003 (ip), vehicle: saline with Tween-80 98 % of control | [2] 96 % of control | dose: 200.0 mg/kg/injection, schedule: Q04DX003 (ip), vehicle: saline with Tween-80 95 % of control | [3] 95 % of control | dose: 400.0 mg/kg/injection, schedule: Q04DX003 (ip), vehicle: saline with Tween-80 97 % of control

CC(=O)C(Cl)C(C)=O.CC(=O)C(Cl)C(C)=O.CC(=O)CC(C)=O.[Rh]
inactive: [4] 102 % of control | [5] 98 % of control | [6] 96 % of control | [7] 98 % of control

O=c1cn[nH]c(=O)[nH]1
inactive: dose: 62.5 mg/kg/injection, schedule: Q01DX009 (ip), vehicle: saline 105 % of control and 107 % of control | dose: 62.5 mg/kg/injection, schedule: Q01DX010 (ip), vehicle: saline 97 % of control and 102 % of control | dose: 110.1 mg/kg/injection, schedule: Q01DX Z (ip), vehicle: carboxymethylcellulose (CMC) 107 % of control | dose: 125.0 mg/kg/injection, schedule: Q01DX009 (ip), vehicle: saline 103 % of control and 118 % of control | dose: 125.0 mg/kg/injection, schedule: Q01DX010 (ip), vehicle: saline 94 % of control and 101 % of control | dose: 132.0 mg/kg/injection, schedule: Q01DX Z (ip), vehicle: methylcellulose (MC) 97 % of control | dose: 200.0 mg/kg/injection, schedule: Q01DX Z (ip), vehicle: methylcellulose (MC) 111 % of control | dose: 220.2 mg/kg/injection, schedule: Q01DX Z (ip), vehicle: carboxymethylcellulose (CMC) 121 % of control | dose: 250.0 mg/kg/injection, schedule: Q01DX009 (ip), vehicle: saline 100 % of control and 107 % of control | dose: 250.0 mg/kg/injection, schedule: Q01DX010 (ip), vehicle: saline 108 % of control and 111 % of control | dose: 300.0 mg/kg/injection, schedule: Q01DX Z (ip), vehicle: methylcellulose (MC) 111 % of control | dose: 440.4 mg/kg/injection, schedule: Q01DX Z (ip), vehicle: carboxymethylcellulose (CMC) 113 % of control | dose: 450.0 mg/kg/injection, schedule: Q01DX Z (ip), vehicle: methylcellulose (MC) 105 % of control | dose: 500.0 mg/kg/injection, schedule: Q01DX009 (ip), vehicle: saline 112 % of control and 120 % of control | dose: 500.0 mg/kg/injection, schedule: Q01DX010 (ip), vehicle: saline 117 % of control and 118 % of control | dose: 675.0 mg/kg/injection, schedule: Q01DX Z (ip), vehicle: methylcellulose (MC) 124 % of control | dose: 880.8 mg/kg/injection, schedule: Q01DX Z (ip), vehicle: carboxymethylcellulose (CMC) 121 % of control | dose: 1011.0 mg/kg/injection, schedule: Q01DX Z (ip), vehicle: methylcellulose (MC) 109 % of control

CCC(CC)C(N)=O
inactive: [8] 100 % of control | [9] 102 % of control | [10] 107 % of control

Cn1c(=O)c2[nH]c(-c3cccs3)nc2n(C)c1=O
inactive: [4] 101 % of control | [5] 90 % of control | [6] 97 % of control | [7] 92 % of control

CN1CCN(C(=O)C(c2ccccc2)C2(O)CCCC2)CC1 (stereo not drawn)
inactive: dose: 5.0 mg/kg/injection, schedule: Q01DX001 (ip), vehicle: saline 96 % of control | dose: 10.0 mg/kg/injection, schedule: Q01DX001 (ip), vehicle: saline 105 % of control

CC1(C)SC(C(NC(=O)COc2ccccc2)C(=O)O)NC1C(=O)O (stereo not drawn)
inactive: [11] 101 % of control | [12] 95 % of control | [13] 88 % of control

CCOC(=O)C/C(C(=O)O)=C(\C)c1ccc2ccccc2c1
inactive: [8] 101 % of control | [14] 95 % of control | [9] 95 % of control | dose: 200.0 mg/kg/injection, schedule: Q01DX009 (ip), vehicle: Klucel (hydroxypropylcellulose) (HPC) 100 % of control | [10] 95 % of control | dose: 400.0 mg/kg/injection, schedule: Q01DX009 (ip), vehicle: Klucel (hydroxypropylcellulose) (HPC) 86 % of control

C[N+](C)(C)CCOC(=O)CCC(=O)OCC[N+](C)(C)C
inactive: dose: 1.56 mg/kg/injection, schedule: Q01DX009 (ip), vehicle: saline 94 % of control | dose: 3.12 mg/kg/injection, schedule: Q01DX009 (ip), vehicle: saline 94 % of control

CCOc1ccc(/C=N/NC(=S)NC23CC4CC(CC(C4)C2)C3)cc1OCC
inactive: dose: 75.0 mg/kg/injection, schedule: Q01DX001 (ip), vehicle: saline 94 % of control | dose: 150.0 mg/kg/injection, schedule: Q01DX001 (ip), vehicle: saline 95 % of control | dose: 300.0 mg/kg/injection, schedule: Q01DX001 (ip), vehicle: saline 94 % of control

CC(=O)NCCSC(=O)C(=O)SCCNC(C)=O
inactive: dose: 25.0 mg/kg/injection, schedule: Q01DX001 (ip), vehicle: saline 115 % of control | dose: 25.0 mg/kg/injection, schedule: Q01DX Z (ip), vehicle: saline 102 % of control | dose: 50.0 mg/kg/injection, schedule: Q01DX001 (ip), vehicle: saline 102 % of control | dose: 50.0 mg/kg/injection, schedule: Q01DX Z (ip), vehicle: saline 96 % of control | dose: 100.0 mg/kg/injection, schedule: Q01DX001 (ip), vehicle: saline 102 % of control | dose: 100.0 mg/kg/injection, schedule: Q01DX Z (ip), vehicle: saline 96 % of control | dose: 200.0 mg/kg/injection, schedule: Q01DX001 (ip), vehicle: saline 94 % of control and 96 % of control and 104 % of control | dose: 450.0 mg/kg/injection, schedule: Q01DX001 (ip), vehicle: saline 86 % of control

NNC(=O)CCSc1ccccc1
inactive: dose: 12.5 mg/kg/injection, schedule: Q01DX009 (ip), vehicle: saline with Tween-80 89 % of control | dose: 25.0 mg/kg/injection, schedule: Q01DX009 (ip), vehicle: saline with Tween-80 99 % of control | [11] 105 % of control

CC(NC(C)c1ccccc1)c1ccccc1 (stereo not drawn)
inactive: dose: 50.0 mg/kg/injection, schedule: Q01DX009 (ip), vehicle: Klucel (hydroxypropylcellulose) (HPC) 102 % of control | [14] 106 % of control | dose: 100.0 mg/kg/injection, schedule: Q04DX003 (ip), vehicle: Klucel (hydroxypropylcellulose) (HPC) 104 % of control | dose: 200.0 mg/kg/injection, schedule: Q04DX003 (ip), vehicle: Klucel (hydroxypropylcellulose) (HPC) 100 % of control

CNC(=O)N(C1CCCCC1)C1CCCCC1
inactive: [1] 109 % of control | [12] 94 % of control and 111 % of control | dose: 100.0 mg/kg/injection, schedule: Q04DX002 (ip), vehicle: saline with Tween-80 105 % of control and 108 % of control | [2] 109 % of control | [13] 86 % of control and 91 % of control | dose: 200.0 mg/kg/injection, schedule: Q04DX002 (ip), vehicle: saline with Tween-80 92 % of control and 108 % of control | [3] 108 % of control | dose: 400.0 mg/kg/injection, schedule: Q01DX009 (ip), vehicle: saline with Tween-80 101 % of control and 91 % of control | dose: 400.0 mg/kg/injection, schedule: Q04DX002 (ip), vehicle: saline with Tween-80 96 % of control and 108 % of control

O=C(COc1ccc(Cl)c(Cl)c1)Nc1cccnc1
inactive: dose: 75.0 mg/kg/injection, schedule: Q01DX009 (ip), vehicle: Klucel (hydroxypropylcellulose) (HPC) 104 % of control | dose: 150.0 mg/kg/injection, schedule: Q01DX009 (ip), vehicle: Klucel (hydroxypropylcellulose) (HPC) 96 % of control | dose: 300.0 mg/kg/injection, schedule: Q01DX009 (ip), vehicle: Klucel (hydroxypropylcellulose) (HPC) 101 % of control
